Data taken from patent publication US20240316059A1, “PEPTIDE DRUG CONJUGATES” (Oncopeptides AB, priority 2021, published 2024).

Key:
[1] = system: DNA prepared from MM.1S cells (nuclear HPRT and mitochondrial DNA); test: Direct DNA damage, PCR amplification of treated DNA (HPRT and mtDNA primers); format: biochemical, human; conditions: 0.25 μM compound, 30 minutes, 37° C., 1 μg DNA
Method in brief: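 Genomic DNA isolated from MM.1S cells, 1 μg treated with 0.25 μM compound for 30 min at 37 °C, DMSO as control. Long-range PCR on 20 ng treated DNA yielding 10.4 kb (HPRT) or 8.9 kb (mtDNA) fragments; damage assessed by loss of product on 1% agarose gel.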

[2] = In vitro cytotoxicity, BJ fibroblasts (normal cells); format: cell-based; conditions: human, CellTiter-Glo 2.0
Description: (§1) All cells were cultivated in RPMI medium 1640 (IX). All media was supplemented with 10 μg/μl penicillin/streptomycin, 10% heat inactivated FBS, 0.1 mM Sodium Pyruvate, 1×MEM NEAA (ThermoFisher) and 1 mM HEPES. The DERL-2 cells had higher FBS (20%) and 40 ng/mL IL-2 was added. hPBMCs were thawed and allowed to acclimatise overnight and then stimulated with 10 μg/mL PHA-M and 40 ng/mL IL-2 for 4 hours before being exposed to test compounds. All cells, except for hPBMCs, were grown to reach log phase before being exposed to the test compounds.
(§2) Test compounds were dissolved in 100% DMSO and added to a 384 assay plate. Additional DMSO was added to maintain the same final DMSO concentration (0.2%) in all wells. 25 μL cell suspension with a concentration of 100000 cells/mL was added to each well. The cells were cultured in a CO2 incubator at 37° C. for 72 h. Plates were equilibrated to room temperature for 30 minutes before adding 20 μL CellTiter-Glo® 2.0 (Promega) reagent to all wells. The plate was then allowed to stabilize for 20 minutes before recording the luminescence (Em filter 700 nm) in an Envision plate reader.

AMO-1 = test: In vitro cytotoxicity, AMO-1 (Multiple Myeloma); format: cell-based; conditions: Homo sapiens, AMO1, 72 h, read-out: Cytotoxicity IC50, AMO-1
Description: as §1, §2

SC-1 = test: In vitro cytotoxicity, SC-1 (B cell Lymphoma); format: cell-based; conditions: Homo sapiens, SC-1, 72 h, read-out: Cytotoxicity IC50, SC-1
Description: as §1, §2

U266 = test: In vitro cytotoxicity, U266 (Multiple Myeloma); format: cell-based; conditions: Homo sapiens, U-266, 72 h, read-out: Cytotoxicity IC50, U266
Description: as §1, §2

U937 = test: In vitro cytotoxicity, U937 (Histiocytic Lymphoma); format: cell-based; conditions: Homo sapiens, U-937, 72 h, read-out: Cytotoxicity IC50, U937
Description: as §1, §2

RPMI-8226 = test: In vitro cytotoxicity, RPMI-8226 (Multiple Myeloma, resistant); format: cell-based; conditions: Homo sapiens, RPMI-8226, 72 h, read-out: Cytotoxicity IC50, RPMI-8226
Description: as §1, §2

OPM-2 = test: In vitro cytotoxicity, OPM-2 (Multiple Myeloma); format: cell-based; conditions: Homo sapiens, OPM-2, 72 h, read-out: Cytotoxicity IC50, OPM-2
Description: as §1, §2

SU-DHL-8 = test: In vitro cytotoxicity, SU-DHL-8 (B-cell non-Hodgkin Lymphoma); format: cell-based; conditions: Homo sapiens, SU-DHL-8, 72 h, read-out: Cytotoxicity IC50, SU-DHL-8
Description: as §1, §2

DERL-2 = test: In vitro cytotoxicity, DERL-2 (T cell Lymphoma); format: cell-based; conditions: Homo sapiens, 72 h, read-out: Cytotoxicity IC50, DERL-2
Description: as §1, §2

Toledo = test: In vitro cytotoxicity, Toledo (Diffuse Large B Cell Lymphoma); format: cell-based; conditions: Homo sapiens, 72 h, read-out: Cytotoxicity IC50, Toledo
Description: as §1, §2

MM.1S cells = test: DNA fragmentation, APO-BrdU TUNEL assay by flow cytometry; format: cell-based, human; conditions: 24 h; for Cells with DNA breaks (TUNEL positive cells): 0.6 μM; for Dose response effect on DNA damage (TUNEL): 0.006, 0.06, 0.6 or 6 μM
Description: Method: 1×10^6 MM.1S cells (CRL-2974, ATCC) were treated with Example compound 1 or Bendamustine at 0.006, 0.06, 0.6 or 6 μM for 24 h. After incubation, the cells were washed with PBS (10010-015, Gibco), fixed in Flow Cytometry Fixation Buffer (FC004, R&D Systems) for 10 min and stored in 70% ethanol at −20° C. overnight. The deoxythymidine analog (BrdUTP) was present in the experiment and served to label the DNA break sites. Next day, the cells were washed and stained using an APO-BrdU™ TUNEL Assay Kit, according to the manufacturer's protocol (A23210, Invitrogen), followed by the analysis using BD FACSCanto™ II. The percentage of TUNEL positive cells indicates the percentage of cells with fragmented DNA.

SK-MM-1 = test: In vitro cytotoxicity, SK-MM-1 (Plasma Cell Leukemia); format: cell-based; conditions: Homo sapiens, 72 h, read-out: Cytotoxicity IC50, SK-MM-1
Description: as §1, §2

[3] = In vitro cytotoxicity, human peripheral blood mononuclear cells; format: cell-based; conditions: CellTiter-Glo 2.0, stimulated with PHA-M and IL-2, read-out: Cytotoxicity IC50, hPBMC
Description: as §1, §2

DOHH-2 = test: In vitro cytotoxicity, DOHH-2 (B Cell Lymphoma); format: cell-based; conditions: Homo sapiens, DOHH-2, 72 h, read-out: Cytotoxicity IC50, DOHH-2
Description: as §1, §2

SUP-T1 = test: In vitro cytotoxicity, SUP-T1 (T cell Lymphoma); format: cell-based; conditions: Homo sapiens, SUP-T1, 72 h, read-out: Cytotoxicity IC50, SUP-T1
Description: as §1, §2

[4] = system: SU-DHL-4 human lymphoma cell line; test: In ovo chicken embryo xenograft model, tumour weight; format: in vivo; conditions: 100 μL injected day 11, 13, 15, 17, tumours weighed day 18
Description: Methods: Inoculation of Fertilized White Leghorn eggs was performed with 3×10^6 SU-DHL-4 tumour cells on day 9 (post-fertilisation). Viable eggs were injected with 100 μL of either Example compound 1 (8.4 uM (0.008 mg/kg), 33.5 uM (0.033 mg/kg), 167.5 uM (0.164 mg/kg)), bendamustine (8.4 uM (0.005 mg/kg), 33.5 uM (0.02 mg/kg), 167.5 uM (0.1 mg/kg)) or vehicle on day 11, 13, 15 and 17. On day 18, tumours were removed and weighed.

Row | SMILES | DNA damage on nuclear and mitochondrial DNA (PCR band) [1] | IC50 at 72 h [2] | IC50 (AMO-1) | IC50 (SC-1) | IC50 (U266) | IC50 (U937) | IC50 (RPMI-8226) | IC50 (OPM-2) | IC50 (SU-DHL-8) | IC50 (DERL-2) | IC50 (Toledo) | Cells with DNA breaks (TUNEL positive cells) (MM.1S cells) | Dose response effect on DNA damage (TUNEL) (MM.1S cells) | IC50 (SK-MM-1) | IC50 at 72 h [3] | IC50 (DOHH-2) | IC50 (SUP-T1) | Tumour reduction compared to vehicle ([4]; 33.5 μM) | Tumour reduction compared to vehicle ([4]; 167.5 μM) | Tumour reduction compared to vehicle ([4]; 8.4 μM)
1 | Cn1c(CCCC(=O)O)nc2cc(N(CCCl)CCCl)ccc21 [Bendamustine, bendamustine, reference compound] | no or very minor effect on DNA damage | > 599000 nM | 57000 nM | 25100 nM | 83000 nM | 27100 nM | 111000 nM | 81900 nM | 14300 nM | 21100 nM | 12500 nM | that was not the case | no obvious effect | 73500 nM | 15800 nM | 10700 nM | 33500 nM | 30% | 76% | –
2 | CCOC(=O)[C@H](CC(C)C)NC(=O)[C@@H](N)CCc1nc2cc(N(CCCl)CCCl)ccc2n1C [Example 1, Ethyl (2S)-2-[[(2S)-2-amino-4-[5-[bis(2-chloroethyl)amino]-1-methyl-benzimidazol-2-yl]butanoyl]amino]-4-methyl-pentanoate] | strong DNA damaging effect | 1070 nM | 49.7 nM | 13.3 nM | 21.4 nM | 9.8 nM | 90.6 nM | 173 nM | 19.9 nM | 6 nM | 4.5 nM | > 90% | induced DNA damage in a dose-dependent manner | 34.7 nM | 5.4 nM | 4.2 nM | 12.7 nM | 70% | 82% | 38%
